Reference: PubChem BioAssay AID1421 (Emory University Molecular Libraries Screening Center, 2008)
Activity calls are given as the source filed them. The rule behind the calls is not given here.

These molecules were tested against Prostaglandin E2 receptor EP2 subtype (Homo sapiens) (UniProt P43116) (assay: compounds shifting PGE2 potency at EP2 – cell-based, human EP2, PGE2 EC50 shift, dose response (AID 1421)). Settings: EP2-expressing cells, PGE2 EC50 shift by compound.
Prostaglandin E2 receptor EP2 subtype (Homo sapiens), sequence (P43116 whole entry, looked up): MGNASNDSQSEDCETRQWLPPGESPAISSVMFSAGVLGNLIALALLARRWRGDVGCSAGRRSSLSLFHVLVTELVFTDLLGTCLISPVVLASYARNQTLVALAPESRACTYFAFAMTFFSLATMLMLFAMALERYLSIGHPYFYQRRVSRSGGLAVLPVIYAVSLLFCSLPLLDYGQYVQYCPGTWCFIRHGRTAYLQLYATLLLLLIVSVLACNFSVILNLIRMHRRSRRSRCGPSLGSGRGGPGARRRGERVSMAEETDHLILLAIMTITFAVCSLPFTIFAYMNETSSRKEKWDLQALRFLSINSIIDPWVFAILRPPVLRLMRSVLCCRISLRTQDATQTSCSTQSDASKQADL

| SMILES | outcome |
| --- | --- |
| COc1ccccc1CNc1cc(C)ccc1C | active |
| O=c1[nH]c2ccc(Cl)cc2c(-c2ccccc2)c1N1CCOCC1 | active |
| C=CCSc1nc2ccccc2n1S(=O)(=O)c1ccc(Cl)cc1 | active |
| CSc1ccccc1NC(=O)CN(C)Cc1cccc(Cl)c1 | active |
| Cc1ccc(C(=O)c2c(NC(=O)c3ccncc3)sc3c2CCCC3)cc1 | active |
| C/C(=N\NC(=O)NC1CCCCC1)C1CCCCC1 | active |
| CSc1ncc2c(n1)-c1cc(C)ccc1SC2 | active |
| C=CCSc1nc2sc(C)c(C)c2c(=O)n1CC=C | active |
| O=c1c2ccccc2nc2n1C1(CCCCC1)Cc1ccccc1-2 | active |
| O=C(Nc1ccccc1Sc1ccccc1)c1ccc(F)cc1 | active |
| CCOC(=O)c1c(NC(=O)c2cccs2)sc(C)c1CC | active |
| CC(C)NC(=O)NC(=O)CSc1nnc(COc2ccccc2F)n1C(C)C1CC2CCC1C2 (stereo not given) | active |

Same assay, conditions: EP2-expressing cells, PGE2 EC50 shift by compound; measured here: PGE2 EC50 at 6.7 uM compound

| SMILES | PGE2 EC50 with compound |
| --- | --- |
| CCOc1nc(-c2ccccc2O)nc2ccccc12 | 1.1 nM |
| Cc1cc2cc3c(cc2nc1SCC(=O)OC(C)C)OCO3 | 0.8 nM |
| Cc1ccc2[nH]c3c(=S)nc[nH]c3c2c1 | 2.83 nM |
| CC1CCN(c2ccccc2NC(=O)c2ccc(F)cc2)CC1 | 0.69 nM |
| N#Cc1c(-c2ccco2)nc(SCC(=O)Nc2cccc(Cl)c2)[nH]c1=O | 1.15 nM |
| Cc1ccccc1S(=O)(=O)c1c(C)cc(C)n(C(C)C)c1=O | 0.83 nM |
| CCOC(=O)COc1cc(Br)c(/C=N/Nc2ccccc2)cc1OC | 2.69 nM |
| COc1ccccc1CNc1cc(C)ccc1C | 0.77 nM |
| CCOC(=O)c1c(N)nn(C(=O)C(C)(C)C)c1-c1ccccc1 | 0.96 nM |
| COC(=O)c1cc2ccsc2n1Cc1ccccc1F | 0.83 nM |
| O=c1c2ccccc2nc(/C=C/c2ccccc2)n1CCc1ccccc1 | 0.92 nM |
| CCCCc1n[nH]c(=S)n1Cc1ccc(Cl)cc1 | 1.57 nM |
| CC1(C)C=Cc2c(c3c(c4c(=O)c(-c5ccc(O)cc5)coc24)OC(C)(C)CC3)O1 | 1.11 nM |
| O=C(CSc1nc2cc(Cl)ccc2s1)N1CCCc2ccccc21 | 1.09 nM |
| O=C(COC(=O)c1ccccc1)Nc1ccccc1Sc1ccccc1 | 0.83 nM |
| Cc1cccc(-c2csc(N)c2C(=O)OC(C)C)c1 | 0.97 nM |
| O=c1[nH]c2ccc(Cl)cc2c(-c2ccccc2)c1N1CCOCC1 | 1.13 nM |
| [N-]=[N+]=Nc1ccc(C(=O)CSC[C@H](NC(=O)CC[C@H](N)C(=O)O)C(=O)NCC(=O)O)cc1 | 0.8 nM |
| Cc1sc(NC(=O)CN2CCOCC2)c(C(=O)c2ccccc2)c1C | 1.18 nM |
| C=CCSc1nc2ccccc2n1S(=O)(=O)c1ccc(Cl)cc1 | 0.85 nM |
| CC(=O)O[C@@H]1c2c(ccc3ccc(=O)oc23)OC(C)(C)[C@@H]1OC(=O)CC(C)C | 0.92 nM |
| CCOC(=O)CSc1nc(-c2ccccc2)nc2ccccc12 | 0.87 nM |
| C1=C(c2ccccc2)Nc2ccccc2N=C1c1ccccc1 | 2.46 nM |
| CCOC(=O)C1=C(N)OC2=C(C(=O)CC(C)(C)C2)C1c1ccc(CC)s1 (stereo not given) | 0.96 nM |
| Cc1ccc(C(=O)O)cc1NC(=S)NC(=O)c1ccc(-c2ccccc2)cc1 | 0.83 nM |
| CSc1ccccc1NC(=O)CN(C)Cc1cccc(Cl)c1 | 0.97 nM |

| SMILES | PGE2 EC50 with compound |
| --- | --- |
| O=C(O)c1oc(C(=O)O)c(C(=O)O)c1C(=O)O | 1.51 nM |
| CC(=O)CSc1ncnc2sc3c(c12)CCC(C)C3 (stereo not given) | 1.75 nM |
| COCCNC(=O)C(c1ccc(F)cc1)N(CC1CCCO1)C(=O)CCC(=O)Nc1ccccn1 (stereo not given) | 2.09 nM |
| CCN(Cc1cc(Cl)cc(C)c1O)Cc1c(O)ccc2ccccc12 | 0.84 nM |
| Fc1ccc(-c2cc(-c3ccccc3)nc(-n3cccn3)n2)cc1 | 1.63 nM |
| CCOC(=O)C(C)Sc1ncc(OC)c(Sc2ccc(Cl)cc2)n1 (stereo not given) | 0.67 nM |
| O=C(NNc1ccc([N+](=O)[O-])cc1[N+](=O)[O-])C1C2CCCCC21 (stereo not given) | 0.66 nM |
| CCCCOc1ccccc1C1C(C(=O)OC)=C(C)N(C)C(C)=C1C(=O)OC | 0.69 nM |
| CCCCn1c(-c2csc(CCC)c2)n[nH]c1=S | 1.28 nM |
| Cc1ccc(CSc2nc3ccccc3cc2C=O)cc1 | 0.73 nM |
| CCOC(=O)c1ccccc1NC1c2ccccc2C(=O)N1c1cc(C)ccn1 (stereo not given) | 1.13 nM |
| Cc1ccsc1-c1n[nH]c(=S)n1C1CCCCC1 | 1.2 nM |
| Cc1ccc(C(=O)c2c(NC(=O)c3ccncc3)sc3c2CCCC3)cc1 | 0.66 nM |
| Cc1ccc(C(=O)c2coc3ccc(OCC(=O)O)cc23)cc1 | 2.78 nM |
| CCOC(=O)c1c(NC(=O)COC(=O)Cn2cnc3ccccc32)sc2c1CCC(C)C2 (stereo not given) | 0.79 nM |
| O=C(CN1CCCCC1)N1c2ccccc2Sc2ccc(C(F)(F)F)cc21 | 1.45 nM |
| CC(C)n1c2ccccc2c2nnc(SCC(=O)Nc3ccccc3C(=O)O)nc21 | 2.65 nM |
| Cc1ccccc1/C=C/c1nc2ccccc2c(=O)n1CCc1ccccc1 | 1.38 nM |
| CCSc1nc2c(c(=O)[nH]c(=O)n2C)n1Cc1ccc(Cl)cc1 | 1.24 nM |
| Cc1ccccc1-n1c(=O)[nH]c(=O)c2c(N)c(C(=O)c3ccc(Cl)cc3)sc21 | 0.86 nM |
| COC(=O)c1cc2occc2n1Cc1cccc(C)c1 | 0.79 nM |
| CCCc1cc(-c2nc(N)ncc2-c2ccc3c(c2)OCCCO3)c(O)cc1OC | 0.86 nM |
| CCCc1cc(=O)[nH]c(SCC(=O)N2CCC(C(=O)OCC)CC2)n1 | 0.64 nM |
| Cc1cc(C)nc(SCc2nnc(SCC#N)n2-c2cccc(Cl)c2)n1 | 2.76 nM |
| CC(=O)Oc1c2c(c3c(c1CC=C(C)C)O[C@]14C(=C[C@@H]5CC1C(C)(C)OC4(C/C=C(\C)C(=O)O)C5=O)C3=O)OC(C)(CCC=C(C)C)C=C2 (stereo not given in full) | 0.89 nM |
| CCOC(=O)C1=NN(c2cccc(C)c2)C2(S1)SC(C(C)=O)=C(C)N2c1ccccc1 (stereo not given) | 0.31 nM |

| SMILES | PGE2 EC50 with compound |
| --- | --- |
| C/C(=N\NC(=O)NC1CCCCC1)C1CCCCC1 | 1.79 nM |
| O=C1N2c3ccccc3CCc3cccc(c32)C1(O)C(F)(F)F (stereo not given) | 0.81 nM |
| CCN1CCN(c2c(Cl)cccc2NC(=O)c2ccc(Br)o2)CC1 | 2.53 nM |
| N#Cc1c(N)nc2c3c(sc(=N)c2c1N)NC(=O)CC3c1c(F)cccc1Cl (stereo not given) | 0.74 nM |
| CCn1c2ccccc2c2cc([N+](=O)[O-])ccc21 | 0.83 nM |
| CSc1ncc2c(n1)-c1cc(C)ccc1SC2 | 0.93 nM |
| CCC(C)(C(=O)NC1CCCCC1)N(C(=O)C1CCC(=O)N1)c1ccccc1 (stereo not given) | 1.17 nM |
| CCOC(=O)C(CC)Sc1ncnc2c1nnn2-c1ccc(F)cc1 (stereo not given) | 0.33 nM |
| Cc1ccc(N/C(C(Cl)=C(Cl)Cl)=C(/Cl)[N+](=O)[O-])c(C)c1 | 1.32 nM |
| C=CCSc1nc2sc(C)c(C)c2c(=O)n1CC=C | 0.83 nM |
| COc1cccc2[nH]c3c(N4CCCCC4)ncnc3c12 | 0.6 nM |
| CCC(Sc1nc(-c2ccccc2)c(C#N)c(=O)[nH]1)C(=O)Nc1cc(C)on1 (stereo not given) | 1.38 nM |
| CCc1ccccc1NC(=O)/C(=C/c1ccco1)c1ccccc1 | 1.58 nM |
| O=C(CSc1ncnc2c1oc1ccccc12)Nc1cccc(F)c1 | 3.15 nM |
| O=c1c2ccccc2nc2n1C1(CCCCC1)Cc1ccccc1-2 | 0.95 nM |
| CCOC(=O)C1=C(C)N(C)C(C)=C(C(=O)OCC)C1c1ccccc1 | 0.97 nM |
| C=CCSc1nccc(-c2cc(Cl)sc2Cl)n1 | 1.07 nM |
| CC(=O)Nc1nnc(CCN2CCCCC2)s1 | 1.46 nM |
| O=C(OCc1ccc(Cl)cc1)c1ccccc1C(=O)c1ccccc1 | 1.02 nM |
| S=c1[nH]nc(-c2ccc3ccccc3n2)n1Cc1ccccc1 | 0.91 nM |
| COc1ccc(OC)c(C(=O)CSc2nnc(Cc3cccs3)n2CCc2ccccc2)c1 | 1.33 nM |
| CCOC(=O)c1c(NC(=O)CSc2ncnc3[nH]ncc23)sc2c1CCC(C)C2 (stereo not given) | 0.67 nM |
| CC(=O)c1cc(C#N)c(SCc2ccccc2)nc1C | 0.83 nM |
| Cc1ccc2c3c(cccc13)-c1ccccc1C2=O | 0.86 nM |
| Cc1ccc(-c2nnc(N3CCC(C)CC3)c3ccccc23)cc1 | 1.39 nM |
| Cc1ccc(Cn2c(Cc3ccccc3)nc3ccccc32)cc1 | 2.5 nM |

| SMILES | PGE2 EC50 with compound |
| --- | --- |
| OC1(c2ccc(Cl)cc2)CN(c2ccccc2)C2=[N+]1CCS2 (stereo not given) | 1.16 nM |
| Cc1sc2ncnc(SCc3ccco3)c2c1C | 1.33 nM |
| O=C(Nc1ccccc1Sc1ccccc1)c1ccc(F)cc1 | 0.97 nM |
| CCCCCn1c(CN2CCN(c3cc(Cl)ccc3C)CC2)nc2c1c(=O)[nH]c(=O)n2C | 1.25 nM |
| Cc1nnc(SCC(=O)NC2CCCCC2)n1C1CCCCC1 | 2.7 nM |
| O=C(O)CCCN1C(=O)/C(=C\c2ccco2)SC1=S | 1.07 nM |
| c1ccc(-c2noc(-c3cccc4ccccc34)n2)cc1 | 1.18 nM |
| COC(=O)c1c(NC(=O)CSc2nnc(-c3cccnc3)n2Cc2ccco2)sc(C)c1C | 0.79 nM |
| Cc1onc(-c2c(F)cccc2Cl)c1C(=O)OCn1nnc2ccccc2c1=O | 0.92 nM |
| CCOC(=O)c1c(NC(=O)c2cccs2)sc(C)c1CC | 1.51 nM |
| CCCC/C(=N\NC(=O)c1ccc(Br)o1)c1ccccc1 | 2.49 nM |
| COc1ccc(CCN(Cc2nc(-c3ccccc3)no2)Cc2nc(-c3ccccc3)no2)cc1OC | 1.2 nM |
| COC(=O)C1C(c2ccccc2)C(C(=O)OCc2ccco2)C1c1ccccc1 (stereo not given) | 2.61 nM |
| C/C(=N\N(Cc1ccccc1)c1ccccc1)c1cccnc1 | 1.38 nM |
| CC(C)NC(=O)NC(=O)CSc1nnc(COc2ccccc2F)n1C(C)C1CC2CCC1C2 (stereo not given) | 1.06 nM |
| O=C(c1cn(Cc2ccccc2)c2ccccc12)C1CC1 | 2.61 nM |
| O=C(CNC1CCCCC1)N1CCC2(CC1)OCCO2 | 1.35 nM |
| COc1ccc(C(=O)N2N=C(c3ccccc3)CC2(O)C(F)(F)F)cc1 (stereo not given) | 2.7 nM |
| Brc1ccc(Cn2c(-c3cncs3)nc3ccccc32)cc1 | 1.66 nM |
| COc1ccc(C)cc1-n1c(=O)c2ccccc2c2ccccc2c1=O | 0.71 nM |
| Cc1ccccc1-n1c(SCC(=O)N2CCCC2)nnc1-c1ccccn1 | 1.28 nM |
| CC1CCN(c2nc3c(c(=O)[nH]c(=O)n3C)n2CC(C)CSc2nnnn2-c2ccccc2)CC1 (stereo not given) | 1.27 nM |
| CCOC(=O)C1=C(CC)OC(N)=C(C#N)C1c1ccsc1 (stereo not given) | 1.33 nM |
| O=C(O)c1ccc(N2C(=O)/C(=C/C=C/c3ccccc3)SC2=S)cc1 | 2.89 nM |
| COc1ccc2c(c1)C(C)=CC(C)(C)N2S(=O)(=O)c1ccc(Br)cc1 | 0.98 nM |
